Patent EP0073865B1, “Derivatives of iodothyronine compounds and their use in an assay for the free iodothyronine compounds” (AMERSHAM INTERNATIONAL plc, priority 1981, dated 1983)

Columns and labels:
TBG = molecular target: T1, TBG (Homo sapiens, UniProt P05543); assay: Displacement of 125I-T4 tracer from TBG:anti-TBG binding reagent (binding strength relative to T4); conditions: for binding to TBG (in words): I-125 labelled tracer
T1 construct: from tissue; host or cells: human serum (resin stripped)
T1 sequence (P05543 21-415): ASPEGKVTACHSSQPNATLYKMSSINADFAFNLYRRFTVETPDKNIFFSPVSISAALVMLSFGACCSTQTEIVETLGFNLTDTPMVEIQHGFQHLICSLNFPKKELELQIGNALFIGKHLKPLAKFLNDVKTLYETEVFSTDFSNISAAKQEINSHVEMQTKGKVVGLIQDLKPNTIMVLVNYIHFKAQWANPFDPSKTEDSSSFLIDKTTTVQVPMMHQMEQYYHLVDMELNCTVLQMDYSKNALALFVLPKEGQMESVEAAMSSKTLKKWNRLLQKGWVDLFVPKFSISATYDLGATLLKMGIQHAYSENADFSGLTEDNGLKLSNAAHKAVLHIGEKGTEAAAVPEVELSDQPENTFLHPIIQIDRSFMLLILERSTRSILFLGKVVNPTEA
Protocol: (§1) Method for estimation of T4.EDTA binding strength to TBG and prealbumin relative to that of T4
(§2) Pre-precipitated antiserum (binding reagent) to either TBG or prealbumin is incubated with a serum source of TBG or prealbumin, so that the T4 binding protein is isolated on the binding reagent. Tracer ^125I-T4 is added to the resulting complex and is thus purified. The displacement of the tracer ^125I―T4, by varying concentrations of T4 and T4.EDTA, from the TBG or prealbumin, can then be studied. The results can be used to estimate the differences in binding affinity between T4 and T4.EDTA for the two T4 binding proteins.
• 2.1 Preparation of ^125I-T4:TBG:anti-TBG binding reagent • 2.1.1. Binding reagent preparation • 15% Donkey anti-sheep) in phosphate • 2% TBG Antiserum) buffer + 0.05% BSA
Equal quantities of the above solutions are mixed and rotated overnight at 4° so that the final concentrations in the binding reagent are 7.5% donkey anti-sheep, and 1% TBG antiserum. Centrifugation at 900 rpm, decantation and resuspension in fresh buffer are carried out twice to wash the reagent.
1 ml of resin stripped human serum and 20 ml of the above binding reagents are mixed for 1 hour at room temperature. Centrifugation, decantation and resuspension in fresh buffer (phosphate + 0.05% BSA) are carried out twice.
Typically 10 ml ofTBG:anti-TBG binding reagents, 28 ml of phosphate buffer + 0.05% BSA, and 2 ml of ^125I―T4 tracer solution (0.1 µCi high specific activity T4 per ml in phosphate buffer + 0.05% BSA) are mixed for 1 hour at room temperature. […]
(§3) Thus the percentage bound of the tracer at different T4 and T4.EDTA concentrations, can be determined in the two systems.
(§4) Tracer percentage bound is plotted against T4 and T4.EDTA concentrations, and from these curves an estimate of the non-specific binding can be made. The data can then be re-calculated, using this blank correction, plotted, and the T4 and T4.EDTA concentrations corresponding to a range of tracer percentage bound values can be read off the curve. […]

[1] = Stability of the tracer compound in water / assay buffer; type: physicochemical; conditions: on dilution into the assay buffer / contact with water
[2] = system: Antisera (having low T4 cross reactivity); assay: Binding to antisera having low T4 cross reactivity, compared with T3
TBPA = molecular target: T2, TBPA (Homo sapiens, UniProt P02766); assay: Displacement of 125I-T4 tracer from TBPA:anti-TBPA binding reagent (binding strength relative to T4); conditions: binding to TBPA (prealbumin), displacement of 125I-T4, 37°C
T2 construct: from tissue; host or cells: normal serum
Protocol: as §1, §2
This is prepared as for the anti-TBG binding reagent except that equal volumes of 30% donkey anti-rabbit second antibody and 4% TBPA antiserum solutions were mixed to give final concentrations of 15% donkey anti-rabbit, and 2% anti-TBPA. […]
as §3, §4

T4 antiserum = assay: Affinity constant with respect to T4 antiserum, relative to T4; type: binding

SMILES: COC(=O)[C@H](Cc1cc(I)c(Oc2cc(I)c(O)c(I)c2)c(I)c1)NC(C)=O [N-Acetyl-thyroxine-methyl ester, N-acetyl-thyroxine-methyl ester, reference compound]
- binding to TBG (in words) (TBG): binds appreciably to TBG
- stability in water [1]: only gives useful assay results within hours of dilution into the assay buffer

SMILES: O=C(O)CN(CCN(CC(=O)O)CC(=O)NC(Cc1cc(I)c(Oc2ccc(O)c(I)c2)c(I)c1)C(=O)O)CC(=O)O (centres unmarked) [T3.EDTA, 2-carboxy-6,9-dicarboxymethyl-1 3',5' di-iodo-4' (3"-iodo-4"-hydroxy)phenoxy phenyl 4-oxo-3,6,9-triazaundecan-11-oic acid.]
- binding to Antisera compared with T3 [2]: equal, or better, binding than T3 itself

SMILES: O=C(O)CN(CCN(CC(=O)O)CC(=O)NC(Cc1cc(I)c(Oc2cc(I)c(O)c(I)c2)c(I)c1)C(=O)O)CC(=O)O (centres unmarked) [T4.EDTA, 1-{3',5'-di-iodo-4' (3",5"-di-iodo-4"-Hydroxyphenoxy)phenyl} 2-carboxy-6,9-dicarboxymethyl-4-oxo-3,6,9,-triazaundecan-11-oic acid]
- binding to TBG (in words) (TBG): no significant tendency to bind to TBG
- affinity constant as % of the affinity constant of T4 (TBG; binding to TBG, displacement of 125I-T4, 37°C): 3.5%
- affinity constant as % of the affinity constant of T4 (TBPA): 2.7%
- affinity constant with respect to T4 antiserum as % of that of T4 (T4 antiserum): 90.4%
- stability in water [1]: stable in water
